{"source": "patent US11505581B2", "about": "“Antigens and T cell epitopes from cockroach and methods of making and using same” (La Jolla Institute for Allergy and Immunology, priority 2015, dated 2022)"}
{"test_system": "PBMC", "assay": "ELISPOT (IFNγ, IL-5, IL-10, IL-17, IL-21) of PBMC expanded 14 days with Bla g extract, then stimulated with peptides or peptide pools", "format": "cell-based, human", "parameters": "key to Average Magnitude of Response: spot forming cells (SFC) per 10^6 PBMC; Response Rate per Subject: unit not given here", "conditions": "non-redundant epitopes; sensitized donors", "description": "PBMC Isolation and Cell Cultures: PBMC (peripheral blood mononuclear cells) were isolated from 450 mL (one unit) of blood by density gradient centrifugation as described and cryopreserved. For in vitro expansion of PBMC for peptide screening, cells were cultured in RPMI1640 (Omega Scientific)+5% human AB serum (Gemini Bioscience), GlutaMAX (Gibco), and penicillin/streptomycin (Omega Scientific) at 2×10^6 per mL, stimulated with 10 ug/mL Bla g extract (Greer), and incubated at 37° C. in 5% CO2. Every three days, IL-2 and IL-7 (10 U/mL) were added to the cultures. Cells were harvested for peptide screening at day 14.\nELISPOT Assays: Production of IFNγ, IL-5, IL-17, IL-10, and IL-21 (as representative of TH1, TH2, TH17, TR1, and […], respectively) in response to peptide stimulation was measured by ELISPOT as described previously. […] In brief, 1×10^5 cells per well were incubated with peptide, peptide pool, or Bla g extract (10, 5, and 10 ug/ml, respectively) on anti-lymphokine antibody coated ELISPOT plates (Millipore #MSIPS4510) for 22 hours. Subsequently, secondary anti-lymphokine antibodies were added and incubated for 2 hours, washed, and avidin-peroxidase complex added for 1 hour. Plates were washed and spots developed with 3-amino-9-ethylcarbazole (Sigma #A6926) and Vector Blue (Vector #SK-5300) for IFNγ/IL-5 and IL-10/IL-17 dual plates or TMB (Sigma #T0565) for single IL-21. Criteria for peptide pool positivity were at least 100 spot forming cells (SFC) per 10^6 PBMC, p<0.05, and stimulation index≥2. Criteria for peptide positivity were identical except with a threshold of 20 SFCs.\nWe synthetized overlapping peptide sets of 15 amino acids in length overlapping by 10 residues and covering the entire sequence of known Bla g Allergens, i.e. Bla g 1-7, 9 and 11, referred from hereafter collectively as BLAGA. A total of 809 BLAGA peptides were arranged in pools, encompassing on average 20 peptides.\nTo assess T cell reactivity, we utilized a strategy applied to the definition of epitopes from various allergen sources^15,16 utilizing in vitro stimulation with allergen extracts. Here, PBMC from each subject were stimulated in vitro with Bla g extract. After 14 days, pools of overlapping 15-mer peptides from the BLAGA were tested for responses, and positive pools deconvoluted to identify the specific epitopes. As readout, we utilized ELISPOT assays specific for IL-5, IFNγ, IL-10, IL-17 and IL-21, chosen as representative of TH2, TH1, TR1, TH17 and TFH reactivity, respectively."}
{"sequence": "AAIANYHYDADENSK", "Average Magnitude of Response": 26.2, "Response Rate per Subject": 11.4}
{"sequence": "AAVAYLQSDEFETIV", "Average Magnitude of Response": 3.2, "Response Rate per Subject": 1.4}
{"sequence": "AGTWSALNSIQQFIS", "Average Magnitude of Response": 15.7, "Response Rate per Subject": 7.1}
{"sequence": "AKGMMHMIKKGANGS", "Average Magnitude of Response": 18.7, "Response Rate per Subject": 2.9}
{"sequence": "AKRFAKWALPLYNKP", "Average Magnitude of Response": 12.2, "Response Rate per Subject": 1.4}
{"sequence": "ALNSIQQFISSEMVE", "Average Magnitude of Response": 4.4, "Response Rate per Subject": 4.3}
{"sequence": "ALREKVLGLPAIKAW (listed as Blattella germanica)", "Average Magnitude of Response": 77.1, "Response Rate per Subject": 12.9}
{"sequence": "AQIQVVIHLDEQYIY", "Average Magnitude of Response": 4.6, "Response Rate per Subject": 5.7}
{"sequence": "ARYFLERLSNDLPDV", "Average Magnitude of Response": 3.5, "Response Rate per Subject": 2.9}
{"sequence": "ATDYENYAIVEGCPA", "Average Magnitude of Response": 32.7, "Response Rate per Subject": 1.4}
{"sequence": "AVLALCATDTLANED", "Average Magnitude of Response": 3.0, "Response Rate per Subject": 2.9}
{"sequence": "CATDTLANEDCFRHE", "Average Magnitude of Response": 3.2, "Response Rate per Subject": 2.9}
{"sequence": "CPTNLGTTVRASVRI", "Average Magnitude of Response": 11.2, "Response Rate per Subject": 4.3}
{"sequence": "DCGVAGFRVDAAKHM", "Average Magnitude of Response": 3.9, "Response Rate per Subject": 2.9}
{"sequence": "DENSKQKKWDPLKKE", "Average Magnitude of Response": 10.3, "Response Rate per Subject": 5.7}
{"sequence": "DKKVYRVFESTVTGR", "Average Magnitude of Response": 4.4, "Response Rate per Subject": 2.9}
{"sequence": "DPSIHVLKMVAELTH", "Average Magnitude of Response": 3.4, "Response Rate per Subject": 1.4}
{"sequence": "DRKMYWQFKMDKIQI (listed as Blattella germanica)", "Average Magnitude of Response": 78.8, "Response Rate per Subject": 5.7}
{"sequence": "DRRGEMFYYTRQQLY", "Average Magnitude of Response": 3.5, "Response Rate per Subject": 1.4}
{"sequence": "DVLDIGGLKVQKQTF", "Average Magnitude of Response": 3.5, "Response Rate per Subject": 2.9}
{"sequence": "DVLQWQTIPYTTIHN", "Average Magnitude of Response": 15.9, "Response Rate per Subject": 2.9}
{"sequence": "EAGFAKLAASDSKSL", "Average Magnitude of Response": 16.0, "Response Rate per Subject": 7.1}
{"sequence": "EIDGKQTHQSVAISR", "Average Magnitude of Response": 3.8, "Response Rate per Subject": 4.3}
{"sequence": "EMIQHYTLDQVNQHK", "Average Magnitude of Response": 3.5, "Response Rate per Subject": 2.9}
{"sequence": "ERYQLVSYNLNSRSG", "Average Magnitude of Response": 3.4, "Response Rate per Subject": 1.4}
{"sequence": "EVVKANGGYLAAGKL", "Average Magnitude of Response": 4.6, "Response Rate per Subject": 5.7}
{"sequence": "FGSTLLDVIQSGLEN", "Average Magnitude of Response": 26.1, "Response Rate per Subject": 8.6}
{"sequence": "FLLSYGEKDFEDYRF", "Average Magnitude of Response": 8.5, "Response Rate per Subject": 8.6}
{"sequence": "FQINLDFKNHNGFIR", "Average Magnitude of Response": 52.0, "Response Rate per Subject": 1.4}
{"sequence": "FRKFSNNFEFSYLLG", "Average Magnitude of Response": 3.3, "Response Rate per Subject": 1.4}
{"sequence": "FRPWWERYQLVSYNL", "Average Magnitude of Response": 10.8, "Response Rate per Subject": 4.3}
{"sequence": "FSQMYHAQLAFSTAF", "Average Magnitude of Response": 3.4, "Response Rate per Subject": 2.9}
{"sequence": "FYTEFDMENNRVGFA", "Average Magnitude of Response": 11.3, "Response Rate per Subject": 2.9}
{"sequence": "GASILTYKTSKLYKM", "Average Magnitude of Response": 19.3, "Response Rate per Subject": 7.1}
{"sequence": "GEKDFEDYRFQEGDW", "Average Magnitude of Response": 12.0, "Response Rate per Subject": 8.6}
{"sequence": "GEPIRFLLSYGEKDF", "Average Magnitude of Response": 3.3, "Response Rate per Subject": 2.9}
{"sequence": "GHSHFVSDVVLSSDG", "Average Magnitude of Response": 9.6, "Response Rate per Subject": 2.9}
{"sequence": "GIRIYVDVVLNQMSG (listed as Blattella germanica)", "Average Magnitude of Response": 62.5, "Response Rate per Subject": 4.3}
{"sequence": "GKDYILRVSQLGHTV", "Average Magnitude of Response": 3.4, "Response Rate per Subject": 4.3}
{"sequence": "GQEYTFYVIVTPYAK", "Average Magnitude of Response": 3.2, "Response Rate per Subject": 2.9}
{"sequence": "GVTPVFYNMVKQGLV", "Average Magnitude of Response": 20.8, "Response Rate per Subject": 1.4}
{"sequence": "HDDRLGFLTFCPTNL (listed as Blattella germanica)", "Average Magnitude of Response": 83.1, "Response Rate per Subject": 7.1}
{"sequence": "HGRTFSSLFQVANQY", "Average Magnitude of Response": 8.4, "Response Rate per Subject": 4.3}
{"sequence": "HHQRLFMVQSLERVV", "Average Magnitude of Response": 3.1, "Response Rate per Subject": 2.9}
{"sequence": "HMAKEDLVANQPNLK (listed as Blattella germanica)", "Average Magnitude of Response": 68.8, "Response Rate per Subject": 4.3}
{"sequence": "HTKLSSSSSITLTLP", "Average Magnitude of Response": 6.2, "Response Rate per Subject": 5.7}
{"sequence": "HYQFDSIHKFEFASK", "Average Magnitude of Response": 24.4, "Response Rate per Subject": 1.4}
{"sequence": "IAGPVSEVTALNRQI", "Average Magnitude of Response": 3.3, "Response Rate per Subject": 2.9}
{"sequence": "IDDIIAILPVDDLYA", "Average Magnitude of Response": 6.6, "Response Rate per Subject": 2.9}
{"sequence": "IHENLIVTSPFRPWW", "Average Magnitude of Response": 9.3, "Response Rate per Subject": 2.9}
{"sequence": "IQGKFGLDATAVGDE", "Average Magnitude of Response": 6.9, "Response Rate per Subject": 1.4}
{"sequence": "IRFSVRRFHPKLGDK", "Average Magnitude of Response": 5.8, "Response Rate per Subject": 2.9}
{"sequence": "IRGRTKFEGNKFTID (listed as Blattella germanica)", "Average Magnitude of Response": 75.5, "Response Rate per Subject": 5.7}
{"sequence": "IRHAILAAGDLYSRR", "Average Magnitude of Response": 5.5, "Response Rate per Subject": 1.4}
{"sequence": "ISDFRAAIANYHYDA", "Average Magnitude of Response": 216.2, "Response Rate per Subject": 18.6}
{"sequence": "IVINNAGILNDEKWE", "Average Magnitude of Response": 10.8, "Response Rate per Subject": 4.3}
{"sequence": "KAAVHLLVAVKASKE", "Average Magnitude of Response": 4.4, "Response Rate per Subject": 1.4}
{"sequence": "KAHSMRNSASMDLSS", "Average Magnitude of Response": 16.4, "Response Rate per Subject": 4.3}
